Measured values from publication PMC5943947 (Molecules : A Journal of Synthetic Chemistry and Natural …, 2017).
pIC50: −log10 of the molar value.

Legend:
B16 cell line = test: In vitro antiproliferative activity, MTT assay, B16; format: cell-based; conditions: Mus musculus, 48 h
Protocol: (§1) HCT116, MCF-7 and B16 cell lines were plated on 96-well plates at a density of 5000 per well and incubated overnight. […] After 48 h, 0.5% MTT (Amresco, Solon, OH, USA) solution was added to each well, and further incubation for 4 h, then cells were centrifuged at 2500 rpm for 15 min and removed from the culture medium. And add 150 μL DMSO to dissolve the formazan. After mixing for 5 min, optical density was detected at 570 nm on a microplate reader (Thermo, Waltham, MA, USA).

HCT116 cell line = test: In vitro antiproliferative activity, MTT assay, HCT116; format: cell-based; conditions: Homo sapiens, HCT-116, 48 h
Protocol: as §1

MCF-7 cell line = test: In vitro antiproliferative activity, MTT assay, MCF-7; format: cell-based; conditions: Homo sapiens, MCF7, 48 h
Protocol: as §1

VEGFR-2 = VEGFR-2 (Homo sapiens, UniProt P35968); test: VEGFR-2 inhibitory assay (caliper mobility shift assay)
Chain of VEGFR-2 (P35968 20-1356): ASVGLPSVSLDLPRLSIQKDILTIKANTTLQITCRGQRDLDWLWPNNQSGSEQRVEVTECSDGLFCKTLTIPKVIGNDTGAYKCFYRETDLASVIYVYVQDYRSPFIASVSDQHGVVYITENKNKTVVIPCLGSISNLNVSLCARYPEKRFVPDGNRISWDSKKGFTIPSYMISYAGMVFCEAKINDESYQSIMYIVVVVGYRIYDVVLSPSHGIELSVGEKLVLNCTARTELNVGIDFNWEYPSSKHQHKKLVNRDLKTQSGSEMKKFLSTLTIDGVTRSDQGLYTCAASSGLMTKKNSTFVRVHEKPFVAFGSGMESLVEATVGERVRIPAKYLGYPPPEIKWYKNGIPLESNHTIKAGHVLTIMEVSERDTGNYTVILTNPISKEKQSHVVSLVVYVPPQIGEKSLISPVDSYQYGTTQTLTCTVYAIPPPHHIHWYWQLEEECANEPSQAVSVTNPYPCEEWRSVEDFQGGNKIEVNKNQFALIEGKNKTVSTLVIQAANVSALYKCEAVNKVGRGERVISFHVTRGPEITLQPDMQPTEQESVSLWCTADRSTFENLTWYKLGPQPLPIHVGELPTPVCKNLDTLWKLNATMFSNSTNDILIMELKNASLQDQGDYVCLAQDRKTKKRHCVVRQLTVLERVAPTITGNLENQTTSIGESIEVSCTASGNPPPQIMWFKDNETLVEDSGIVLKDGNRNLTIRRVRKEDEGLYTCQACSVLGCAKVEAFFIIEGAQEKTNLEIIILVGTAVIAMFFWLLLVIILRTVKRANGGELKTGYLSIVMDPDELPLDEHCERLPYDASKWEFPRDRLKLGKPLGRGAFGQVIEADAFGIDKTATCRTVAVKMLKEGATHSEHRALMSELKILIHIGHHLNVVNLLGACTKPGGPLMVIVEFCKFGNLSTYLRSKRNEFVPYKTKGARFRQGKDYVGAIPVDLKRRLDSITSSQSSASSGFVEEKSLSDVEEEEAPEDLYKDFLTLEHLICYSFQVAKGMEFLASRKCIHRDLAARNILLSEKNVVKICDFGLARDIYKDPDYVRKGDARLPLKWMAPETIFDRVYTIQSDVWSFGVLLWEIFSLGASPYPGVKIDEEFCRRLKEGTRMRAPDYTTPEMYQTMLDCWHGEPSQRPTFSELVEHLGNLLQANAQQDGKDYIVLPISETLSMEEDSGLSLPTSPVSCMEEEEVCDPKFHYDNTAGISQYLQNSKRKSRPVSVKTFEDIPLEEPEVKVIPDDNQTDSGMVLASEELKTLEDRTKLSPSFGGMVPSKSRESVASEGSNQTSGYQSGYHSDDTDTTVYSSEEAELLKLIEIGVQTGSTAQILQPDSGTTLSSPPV
Protocol: (§3) Each of these compounds was dissolved in DMSO at 10 mM, diluted to 50× of the final desired highest inhibitor concentration in reaction by 100% DMSO, and 100 μL of each dilution was added to one well on 96-well storage plate, and diluted by transferring 10 μL to 90 μL of 100% DMSO in the next well. Besides, 100 μL of 100% DMSO was added to two empty wells for no compound control and no enzyme control in the same 96-well plate respectively. The plate was marked as source plate. 10 μL of each compound was transferred from the source plate to a new 96-well plate, which was marked as the intermediate plate. Next, 90 μL of 1× kinase base buffer was added to each well of the intermediate plate, and mixed by shaking vigorously for 10 min. A total of 5 μL of each well from the 96-well intermediate plate was transferred to a 384-well plate in duplicate.
(§4) Kinase reaction: kinase in 1× kinase base buffer, FAM-labeled peptide and ATP in the 1× kinase base buffer were added, then 10 μL of 2.5× enzyme solution was added to each well of the 384-well assay plate. After incubating at room temperature for 10 min, 10 μL of 2.5× peptide solution was added to each well of the 384-well assay plate. […] Finally, the kinase reactions were quenched with 25 μL of EDTA and the plates were washed. The dates were collected and converted with the caliper program.

[1] = Body weight in B16 melanoma xenograft model; format: in vivo; conditions: B16 tumor-bearing C57BL/6J mice; for Body Weight End: 90 mg/kg for 14 days, end of treatment; for Body Weight Initial: 90 mg/kg, before treatment
Protocol: (§2) Male C57BL/6J mice were employed to establish the xenograft tumor model by subcutaneous injection (S.C.) of 6 × 10^6 B16 cells. […] In the end of treatment, the mice were sacrificed and the tumor were peeled off and weighted. The inhibition rate of tumor growth was calculated. All animal protocols were conformed to the Guidelines for the Care and Use of Laboratory Animals approved by the Animal Care and Use Committee of Yantai University.

EGFR = EGFR (Homo sapiens, UniProt P00533); test: EGFR inhibitory assay (caliper mobility shift assay)
Chain of EGFR (P00533 25-1210): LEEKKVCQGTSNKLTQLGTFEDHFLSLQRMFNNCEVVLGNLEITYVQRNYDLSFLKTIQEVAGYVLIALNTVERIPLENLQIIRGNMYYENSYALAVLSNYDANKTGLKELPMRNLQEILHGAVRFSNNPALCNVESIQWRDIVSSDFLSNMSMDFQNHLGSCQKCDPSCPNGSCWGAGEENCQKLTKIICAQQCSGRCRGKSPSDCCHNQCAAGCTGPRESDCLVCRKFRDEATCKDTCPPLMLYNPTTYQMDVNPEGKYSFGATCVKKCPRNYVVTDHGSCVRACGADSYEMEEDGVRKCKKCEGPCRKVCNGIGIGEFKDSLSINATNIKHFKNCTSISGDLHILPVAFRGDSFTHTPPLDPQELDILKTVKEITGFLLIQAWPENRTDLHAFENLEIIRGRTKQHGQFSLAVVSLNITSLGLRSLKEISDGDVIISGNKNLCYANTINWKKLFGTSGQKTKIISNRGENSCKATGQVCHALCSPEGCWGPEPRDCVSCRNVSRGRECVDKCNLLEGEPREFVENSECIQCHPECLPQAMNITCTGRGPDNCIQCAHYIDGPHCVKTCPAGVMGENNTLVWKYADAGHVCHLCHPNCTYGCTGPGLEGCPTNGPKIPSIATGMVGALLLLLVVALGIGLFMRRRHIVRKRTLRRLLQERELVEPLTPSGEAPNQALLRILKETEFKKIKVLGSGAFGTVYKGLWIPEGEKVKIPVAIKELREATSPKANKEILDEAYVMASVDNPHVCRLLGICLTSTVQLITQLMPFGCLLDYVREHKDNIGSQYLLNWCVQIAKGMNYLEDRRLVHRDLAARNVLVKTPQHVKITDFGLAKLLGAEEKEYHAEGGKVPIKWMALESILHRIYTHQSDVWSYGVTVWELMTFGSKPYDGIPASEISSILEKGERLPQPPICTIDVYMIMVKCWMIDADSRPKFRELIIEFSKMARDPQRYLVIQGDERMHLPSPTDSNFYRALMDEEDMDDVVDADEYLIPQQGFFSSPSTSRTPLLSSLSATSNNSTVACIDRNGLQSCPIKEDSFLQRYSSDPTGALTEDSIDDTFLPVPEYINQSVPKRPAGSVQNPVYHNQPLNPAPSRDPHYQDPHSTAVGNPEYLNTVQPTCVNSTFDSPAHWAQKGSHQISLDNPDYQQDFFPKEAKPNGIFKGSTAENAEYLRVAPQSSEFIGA
Protocol: as §3, §4

B16 melanoma xenograft = test: In vivo antitumor activity, B16 melanoma xenograft model; conditions: 90 mg/kg for 14 days (text: orally; table footnote: i.p.), C57BL/6J mice
Protocol: as §2

| Compound | melting point | pIC50 (B16 cell line) | pIC50 (HCT116 cell line) | pIC50 (MCF-7 cell line) | pIC50 (VEGFR-2) | pIC50 (EGFR) | Body Weight End [1] | Body Weight Initial [1] | Inhibition Rate of tumor growth (B16 melanoma xenograft) | Tumor Weight (B16 melanoma xenograft) | Inhibition Rate of tumor growth (B16 melanoma xenograft; listed as Sorafenib) |
| --- | --- | --- | --- | --- | --- | --- | --- | --- | --- | --- | --- |
| COc1cc2ncnc(Sc3cccc(NC(=S)Nc4ccc(OC(F)(F)F)cc4)c3)c2cc1OC [Compound 10n, 1-(4-Trifluoromethoxyphenyl)-3-[3-(6,7-dimethoxyquinazolin-4-ylsulfanyl)phenyl]thiourea] | 138 to 139.3 °C | 4.17 | 4.19 | 4.49 | < 5.00 | < 5.00 |  |  |  |  |  |
| COc1cc2ncnc(Sc3cccc(NC(=S)Nc4ccc(Cl)cc4Cl)c3)c2cc1OC [Compound 10r, 1-(2,4-Dichlorophenyl)-3-[3-(6,7-dimethoxyquinazolin-4-ylsulfanyl)phenyl]thiourea] | 172.4 to 174 °C | 4.56 | 4.20 | 4.83 | < 5.00 | 5.45 |  |  |  |  |  |
| COc1cc2ncnc(Sc3cccc(NC(=S)Nc4ccc(F)c(F)c4)c3)c2cc1OC [Compound 10s, 1-(3,4-Difluorophenyl)-3-[3-(6,7-dimethoxyquinazolin-4-ylsulfanyl)phenyl]thiourea] | 128.2 to 130.4 °C | 4.38 | < 4.00 | 4.52 | 5.29 | 5.50 |  |  |  |  |  |
| COc1cc2ncnc(Sc3cccc(NC(=S)Nc4ccc(Cl)cc4)c3)c2cc1OC [Compound 10t, 1-(4-Chlorophenyl)-3-[3-(6,7-dimethoxyquinazolin-4-ylsulfanyl)phenyl]thiourea] | 124.8 to 126.1 °C | 4.24 | 4.64 | 4.58 | 5.16 | 5.54 |  |  |  |  |  |
| COc1cc2ncnc(Sc3cccc(NC(=S)Nc4ccc(F)cc4)c3)c2cc1OC [Compound 10u, 1-(4-Fluorophenyl)-3-[3-(6,7-dimethoxyquinazolin-4-ylsulfanyl)phenyl]thiourea] | 152 to 153.2 °C | 4.21 | 4.56 | 4.67 | 5.18 | 5.27 |  |  |  |  |  |
| COc1cc2ncnc(Sc3cccc(NC(=S)Nc4ccc(C)cc4)c3)c2cc1OC [Compound 10v, 1-p-tolyl-3-[3-(6,7-dimethoxyquinazolin-4-ylsulfanyl)phenyl]thiourea] | 163.1 to 165 °C | < 4.00 | 4.08 | 4.54 | < 5.00 | < 5.00 |  |  |  |  |  |

Stronger by pIC50 (B16 cell line), values ahead:

| melting point | pIC50 (B16 cell line) | pIC50 (HCT116 cell line) | pIC50 (MCF-7 cell line) | pIC50 (VEGFR-2) | pIC50 (EGFR) | Compound | Body Weight End [1] | Body Weight Initial [1] | Inhibition Rate of tumor growth (B16 melanoma xenograft) | Tumor Weight (B16 melanoma xenograft) | Inhibition Rate of tumor growth (B16 melanoma xenograft; listed as Sorafenib) |
| --- | --- | --- | --- | --- | --- | --- | --- | --- | --- | --- | --- |
| 127.5 to 131 °C | 4.89 | 5.04 | 4.68 | 6.57 | 7.15 | COc1cc2ncnc(Sc3cccc(NC(=S)Nc4cccc(C(F)(F)F)c4)c3)c2cc1OC [Compound 10p, 1-(3-Trifluoromethylphenyl)-3-[3-(6,7-dimethoxyquinazolin-4-ylsulfanyl)phenyl]thiourea] |  |  |  |  |  |
| 168.2 to 171 °C | 4.91 | 5.02 | 4.72 | 7.05 | 7.70 | COc1cc2ncnc(Sc3cccc(NC(=S)Nc4cc(C(F)(F)F)cc(C(F)(F)F)c4)c3)c2cc1OC [Compound 10o, 1-(3,5-Ditrifluoromethylphenyl)-3-[3-(6,7-dimethoxyquinazolin-4-ylsulfanyl)phenyl]thiourea] |  |  |  |  |  |
| 128.4 to 130 °C | 5.03 | 5.06 | 4.60 |  |  | COc1cc2ncnc(Sc3cccc(NC(=S)Nc4ccc(F)c(C(F)(F)F)c4)c3)c2cc1OC [Compound 10l, 1-[3-(6,7-Dimethoxyquinazolin-4-ylsulfanyl)phenyl]-3-(4-fluoro-3-trifluoromethylphenyl) thiourea] |  |  |  |  |  |
|  | 5.03 | 4.98 | 4.75 |  |  | CNC(=O)c1cc(Oc2ccc(NC(=O)Nc3ccc(Cl)c(C(F)(F)F)c3)cc2)ccn1 [sorafenib, reference compound] | 21.3 ± 2.4 g | 20.7 ± 2.1 g | 31.25% | 0.88 ± 0.46 g | 31.25% |
| 162.2 to 164 °C | 5.10 | 5.09 | 4.68 | 7.15 | 8.00 | COc1cc2ncnc(Sc3cccc(NC(=S)Nc4ccc(Cl)c(C(F)(F)F)c4)c3)c2cc1OC [Compound 10m, 1-(4-Chloro-3-trifluoromethylphenyl)-3-[3-(6,7-dimethoxyquinazolin-4-ylsulfanyl)phenyl] thiourea] | 20.9 ± 1.6 g | 19.2 ± 2.1 g | 20.31% | 1.02 ± 0.36 g |  |
